Calls of active or inactive are those of the source. No cut-off for these calls is given here.

These results are taken from ChEMBL document CHEMBL5223122, “Discovery and preclinical evaluations of GST-HG131, a novel HBV antigen inhibitor for the treatment of chronic hepatitis B infection” (Bioorg Med Chem Lett, 2022).

Data set [1] is described as follows: Oral bioavailability in Sprague-Dawley rat at 2 mg/kg. Particulars: in vivo. The data set is classed as ADME, organism-based.
Data set [2] relates to Hepatitis B virus. Briefly: Antiviral activity against HBV infected in human HepG2.2.15 assessed as reduction on HBsAg level by ELISA. It counts as functional, organism-based.
Data set [3] can be described thus: Oral bioavailability in C57BL/6 mouse at 2 mg/kg. Particulars: in vivo. The data set is classed as ADME, organism-based.
A short description of data set [4]: Half life in C57BL/6 mouse at 1 mg/kg, iv. The data set is classed as ADME, organism-based. The note with it: in vivo.
The nature of data set [5]: Clearance in Sprague-Dawley rat at 1 mg/kg, iv. The data set is classed as ADME, organism-based. Particulars: in vivo.
A short description of data set [6]: AUC (0-last) in C57BL/6 mouse at 2 mg/kg, po. The data set is classed as ADME, organism-based. Also noted: dose 2 mg/kg, route po. The note with it: in vivo.
The nature of data set [7]: Cmax in Sprague-Dawley rat at 2 mg/kg, po. It counts as ADME, organism-based. On the set-up: dose 2 mg/kg, route po. Particulars: in vivo.
Data set [8] is described as follows: Volume of distribution in steady state in C57BL/6 mouse at 1 mg/kg, iv. The data set is classed as ADME, organism-based. Particulars: in vivo, read-out: Vdss.
Data set [9] can be described thus: AUC (0-last) in Sprague-Dawley rat at 2 mg/kg, po. The note with it: in vivo. It counts as ADME, organism-based. On the set-up: dose 2 mg/kg, route po.
A short description of data set [10]: Volume of distribution in steady state in Sprague-Dawley rat at 1 mg/kg, iv. It counts as ADME, organism-based. The note with it: in vivo, read-out: Vdss.
Data set [11] has as its system Hepatitis B virus. Description: Antiviral activity against HBV infected in human HepG2.2.15 assessed as HBV DNA reduction by qPCR method. It counts as functional, organism-based.
A short description of data set [12]: Half life in Sprague-Dawley rat at 1 mg/kg, iv. Particulars: in vivo. The data set is classed as ADME, organism-based.
The nature of data set [13]: Clearance in C57BL/6 mouse at 1 mg/kg, iv. The data set is classed as ADME, organism-based. Particulars: in vivo.
Data set [14] in a line: Cmax in C57BL/6 mouse at 2 mg/kg, po. Also noted: dose 2 mg/kg, route po. Particulars: in vivo. It counts as ADME, organism-based.
For data set [15], the system named is Hepatitis B virus. Description: In vivo antiviral activity against AAV encapsidated HBV infected in mouse assessed as reduction in HBsAg level at 1 mg/kg, po QD for 4 weeks in presence of (R)-7-(tert-butyl)-2-methoxy-3-(3-methoxypropoxy)-11-oxo-6,7-dihydro-11H-benzo[f]pyrido[1,2-d][1,4]oxazepine-10-carboxylic acid by ELISA. The data set is classed as functional, organism-based.

The subject of data set [16] is Hepatitis B virus. Briefly: In vivo antiviral activity against AAV encapsidated HBV infected in mouse assessed as reduction in HBeAg level at 1 mg/kg, po QD for 4 weeks in presence of (R)-7-(tert-butyl)-2-methoxy-3-(3-methoxypropoxy)-11-oxo-6,7-dihydro-11H-benzo[f]pyrido[1,2-d][1,4]oxazepine-10-carboxylic acid by ELISA. It counts as functional, organism-based.
The subject of data set [17] is Hepatitis B virus. Briefly: In vivo antiviral activity against AAV encapsidated HBV infected in mouse assessed as reduction in HBV DNA at 1 mg/kg, po QD for 4 weeks in presence of (R)-7-(tert-butyl)-2-methoxy-3-(3-methoxypropoxy)-11-oxo-6,7-dihydro-11H-benzo[f]pyrido[1,2-d][1,4]oxazepine-10-carboxylic acid by qPCR method. The data set is classed as functional, organism-based.

The subject of data set [18] is Hepatitis B virus. Briefly: Antiviral activity against HBV infected in human primary hepatocytes assessed as reduction on HBsAg level by ELISA. The data set is classed as functional, organism-based. The note with it: Hepatocyte.
The test system of data set [19] is Hepatitis B virus. Briefly: Antiviral activity against HBV infected in human primary hepatocytes assessed as reduction on HBeAg level by ELISA. The note with it: Hepatocyte. It counts as functional, organism-based.
The test system of data set [20] is Hepatitis B virus. Description: Antiviral activity against HBV infected in human HepG2.2.15 cells assessed as reduction of 3.5 Kb HBV RNA level at 50 nM and incubated for 4 to 48 hrs by Northern blot anlaysis. The data set is classed as functional, organism-based. The note with it: time 4-48 hrs.
Data set [21] relates to Hepatitis B virus. Description: Antiviral activity against HBV infected in human primary hepatocytes assessed as HBV DNA reduction by qPCR method. The data set is classed as functional, organism-based. The note with it: Hepatocyte.
Data set [22] is described as follows: Toxicity in mouse infected with AAV encapsidated HBV assessed as change in body weight at 1 mg/kg, po QD for 4 weeks. The data set is classed as organism-based. The note with it: in vivo, 672 h.
The nature of data set [23]: Toxicity in rat assessed as mild central lobular hepatocyte degeneration of liver at 1000 mg/kg, po QD for 14 days. The data set is classed as organism-based. The note with it: hepatocytes, 336 h, time 14 day.
Data set [24] relates to Hepatitis B virus. Briefly: In vivo antiviral activity against AAV encapsidated HBV infected in mouse assessed as reduction in HBeAg level at 10 mg/kg, po QD for 4 weeks by ELISA. It counts as functional, organism-based.
A short description of data set [25]: Toxicity in rat assessed as decrease in normal rectal temperature at 300 mg/kg, po. Particulars: in vivo. The data set is classed as organism-based.
Data set [26] relates to Hepatitis B virus. Briefly: In vivo antiviral activity against AAV encapsidated HBV infected in mouse assessed as reduction in HBsAg level at 10 mg/kg, po QD for 4 weeks by ELISA. The data set is classed as functional, organism-based.
Data set [27] can be described thus: Toxicity in rat assessed as mild white myeloid lymphocytopenia of spleen at 1000 mg/kg, po QD for 14 days. The data set is classed as organism-based. Particulars: in vivo, 336 h, time 14 day.
Data set [28] in a line: Toxicity in rat assessed as decrease in normal rectal temperature at 1000 mg/kg, po. The data set is classed as organism-based. The note with it: in vivo.
The nature of data set [29]: Toxicity in rat assessed as moderate acute mucosal inflammation of duodenum at 1000 mg/kg, po QD for 14 days. Particulars: in vivo, 336 h, time 14 day. It counts as organism-based.
Data set [30] is described as follows: Toxicity in rat assessed as mild myocardial degeneration of heart at 1000 mg/kg, po QD for 14 days. It counts as organism-based. The note with it: in vivo, 336 h, time 14 day.
Data set [31] in a line: Toxicity in mouse infected with AAV encapsidated HBV assessed as change in body weight at 10 mg/kg, po QD for 4 weeks. It counts as organism-based. The note with it: in vivo, 672 h.
The nature of data set [32]: Toxicity in rat assessed as mydriasis at 300 to 1000 mg/kg, po. It counts as organism-based. Particulars: in vivo, dose 300-1000 mg/kg.
Data set [33] is described as follows: Toxicity in rat assessed as organ abnormality at 100 to 300 mg/kg, po QD for 14 days. The data set is classed as organism-based. The note with it: in vivo, 336 h, dose 100-300 mg/kg, time 14 day.

On to `COCCCOc1cc2c(cc1C(C)=O)-c1cc(=O)c(C(=O)O)cn1[C@H](C(C)(C)C)CO2`, for which the bioavailability came to 10.4% in data set [1] and 55.3% in data set [3]. The EC50 worked out at 1.3 nM in the data set on Hepatitis B virus [2] and 0.5 nM in the data set with Hepatitis B virus [11]. Further, the figures for the half-life in data set [4] and in data set [12] were 0.6 h and 0.8 h, respectively. For the same compound, the clearance in data set [5] came out at 33 mL/min/kg; in [13] it was 81 mL/min/kg. Besides, the AUC(0-t) is 0.478 µM·h in data set [6] and 0.228 µM·h in data set [9]. For the same compound, the values for the Cmax in data set [7] and in data set [14] were 104 nM and 604 nM, respectively. Also, the Vd in data set [8] was 2.5 L/kg; in data set [10], 1 L/kg.
For `COCCCOc1cc2c(cc1Cl)-c1cc(=O)c(C(=O)O)cn1[C@H](c1ccccc1)CO2`, the EC50 with Hepatitis B virus [2] and in the data set with Hepatitis B virus [11] was over 1000 nM throughout.
Turning to `CC(C)OC(=O)OCOP(=O)(CO[C@H](C)Cn1cnc2c(N)ncnc21)OCOC(=O)OC(C)C`, the result with Hepatitis B virus [15] and in the data set with Hepatitis B virus [16] was inactive. Also, the outcome in the data set with Hepatitis B virus [17] was Active.
As for `C=C1[C@H](CO)[C@@H](O)C[C@@H]1n1cnc2c(=O)[nH]c(N)nc21.O` [ENTECAVIR], the EC50 is over 0.05 nM in the data set with Hepatitis B virus [18], over 0.05 nM in the data set with Hepatitis B virus [19] and 0.0078 nM with Hepatitis B virus [21]. Moreover, in the data set with Hepatitis B virus [20], the outcome was inactive. Further, in [22], the Activity entry is recorded as “Non-Toxic”.
Consider `COCCCOc1cc2c(cc1Cl)-c1cc(=O)c(C(=O)O)cn1[C@H](CC(C)C)CO2`, for which the EC50 turned out to be 128 nM in the data set on Hepatitis B virus [2] and 102 nM in the data set on Hepatitis B virus [11].
The corresponding values for `COCCCOc1ccc(-c2cc(=O)c(C(=O)O)cn2-c2ccccc2C)cc1Cl` are 230 nM and 140 nM.
In the same order, the values of `CC[C@@H]1COc2cc(OCCCOC)c(Cl)cc2-c2cc(=O)c(C(=O)O)cn21` are 47.2 nM and 44.7 nM.
On to `COCCCOc1cc2c(cc1Cl)-c1cc(=O)c(C(=O)O)cn1[C@H](C(C)C)CO2`, for which the EC50 was 6.6 nM with Hepatitis B virus [2] and 8.8 nM with Hepatitis B virus [11]. For the same compound, in data set [3], the bioavailability is 56.3%. The half-life in data set [4] was 1.6 h. Further, in data set [6], the AUC(0-t) worked out at 1.34 µM·h. Moreover, the Vd in data set [8] is 1.7 L/kg. The compound also displayed a clearance in data set [13] of 32 mL/min/kg. The compound also returned a Cmax in data set [14] of 1310 nM.
For the compound `COCCCOc1cc2c(cc1Cl)-c1cc(=O)c(C(=O)O)cn1[C@H](C(C)C)C2`, the EC50 was 0.9 nM in the data set with Hepatitis B virus [2] and 0.8 nM in the data set with Hepatitis B virus [11].
`COCCCOc1cc2c(cc1OC)-c1cc(=O)c(C(=O)O)cn1[C@H](C(C)C)C2`: the Activity result in data set [23], in [25], in [27], in [28], in data set [29] and in data set [30] was “Toxic” in each case. Moreover, the values for the Activity result in data set [31], in data set [32] and in data set [33] were “Non-Toxic”, “Toxic” and “Non-Toxic”, respectively. Moreover, the EC50 in the data set with Hepatitis B virus [2] and with Hepatitis B virus [11] was 0.8 nM in each case. Also, the result in the data set with Hepatitis B virus [24] and in the data set with Hepatitis B virus [26] was Active.
On to `COCCCOc1cc2c(cc1Cl)-c1cc(=O)c(C(=O)O)cn1[C@H](C1CC1)CO2`, for which the EC50 stood at 66.2 nM with Hepatitis B virus [2] and 105 nM with Hepatitis B virus [11].
In the same order, the values of `COCCCOc1cc2c(cc1Cl)-c1cc(=O)c(C(=O)O)cn1[C@H](C)CO2` are 226 nM and 193 nM.
The corresponding values for `COCCCOc1cc2c(cc1Cl)-c1cc(=O)c(C(=O)O)cn1[C@H](C1CCC1)CO2` are 125 nM and 531 nM.
In the case of `COCCCOc1cc2c(cc1Cl)-c1cc(=O)c(C(=O)O)cn1[C@H](C(C)(C)C)CO2`, the EC50 in the data set on Hepatitis B virus [2] was found to be 0.7 nM; in the data set with Hepatitis B virus [11], 0.5 nM. In addition, the bioavailability in [3] is 18.3%. The compound further gave a half-life in data set [4] of 6.3 h. This compound also gave an AUC(0-t) in data set [6] of 0.193 µM·h. Besides, the Vd in data set [8] was found to be 4.9 L/kg. Also, in [13], the clearance stood at 58.5 mL/min/kg. This compound came in with a Cmax in [14] of 203 nM.
